How the values were obtained:
Type in all cases: cell-based
[1] = molecular target: T1, human ERβ (Homo sapiens, UniProt Q92731); assay: reporter assay (luciferase) in COS-7 cells transfected with human ERβ; conditions: for EC50: COS-7 cells, 24 h with compound, luciferase, read-out: EC50 of tested ligands in the reporter assays, ER β; for ligand selectivity for ERβ in the reporter assays: ratio of relative activities of ERα and ERβ, E2 = 1.00
T1 construct: expressed in transfected cells; host or cells: COS-7
Description: (§1) The activity of some of the selected novel ligands of estrogen receptors was determined in reporter assays with the COS-7 cells. The reporter assay has an advantage over a classical determination of the ligand binding affinity for the receptor because in the case of steroid hormone receptors the high affinity of the ligand for the receptor doesn't always result in the equally high potency of activating the transcription via the receptor. The COS-7 cell line provides a significant advantage for this type of experiment, since it doesn't express endogenous ERα or ERβ at significant levels, and therefore it is highly suitable for the reporter assays. In addition, these compounds were also tested in the reporter assays with HEK293 cell-line.
(§2) COS-7 cells were transfected with the expression vector encoding human ERα or ERβ and with the reporter vector containing one estrogen responsive element followed by the minimal thymidine kinase promoter from the herpes simples virus. Luciferase was used as a reporter gene. The cells were seeded in a white 96-well plate after transfection, and were further cultivated in the DMEM medium without phenol red containing 2 mM glutamine, 20 mM Hepes, pH 7.5, 5 μg/ml insulin, 5 μg/ml human transferine, 100 μg/m1 bovine serum albumin (BSA). Serially diluted compounds in DMSO were added to cells 24 hours after transfection, and after the next 24 hours the luciferase activity was measured using the commercial STEADY-GLO Luciferase Assay Kit (Promega) according to the manufacturer's instructions. The luminescence was measured using the combined spectrophotometer ENVISION (PerkinElmer) with 1 s signal integration. […] The ligand selectivity for the given receptor was calculated as a ratio of relative activities of ERα and ERβ for the given ligand.

[2] = molecular target: T2, human ERα (Homo sapiens, UniProt P03372); assay: reporter assay (luciferase) in COS-7 cells transfected with human ERα; conditions: for EC50: COS-7 cells, 24 h with compound, luciferase, read-out: EC50 of tested ligands in the reporter assays, ER α; for ligand selectivity for ERα in the reporter assays: ratio of relative activities of ERα and ERβ, E2 = 1.00
T2 construct: expressed in transfected cells; host or cells: COS-7
T2 sequence (P03372 1-595): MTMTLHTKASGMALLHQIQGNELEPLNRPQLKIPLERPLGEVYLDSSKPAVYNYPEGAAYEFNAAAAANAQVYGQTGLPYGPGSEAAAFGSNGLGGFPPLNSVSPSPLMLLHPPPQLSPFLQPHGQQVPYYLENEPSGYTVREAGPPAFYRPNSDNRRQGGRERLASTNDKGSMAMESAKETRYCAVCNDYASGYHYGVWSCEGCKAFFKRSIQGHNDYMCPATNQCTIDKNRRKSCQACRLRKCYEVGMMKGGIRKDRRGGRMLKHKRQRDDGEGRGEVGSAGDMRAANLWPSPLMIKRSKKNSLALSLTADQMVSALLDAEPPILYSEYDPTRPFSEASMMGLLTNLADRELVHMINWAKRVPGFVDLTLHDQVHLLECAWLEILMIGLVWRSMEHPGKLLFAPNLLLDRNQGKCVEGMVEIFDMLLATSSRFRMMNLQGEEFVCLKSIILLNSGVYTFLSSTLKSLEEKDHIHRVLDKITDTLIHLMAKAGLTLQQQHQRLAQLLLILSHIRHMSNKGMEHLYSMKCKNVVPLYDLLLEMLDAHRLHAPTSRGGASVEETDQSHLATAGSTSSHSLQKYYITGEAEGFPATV
Description: as §1, §2

[3] = system: MCF-7 cells; assay: proliferation assay in estrogen-growth-dependent MCF-7 cell line; conditions: for proliferation effect on MCF-7 cells: 1 nM concentration
Description: The MCF-7 cell line was derived from a breast adenocarcinoma and, considering its growth dependency on estrogen, it is a valuable tool for evaluation of estrogenic properties of chemical compounds. Since MCF-7 cells express exclusively ERα, the proliferative effect of tested compounds is mediated mainly by this receptor.
MCF-7 cells were cultivated for 6 days in DMEM medium without phenol red containing 8% charcoal treated fetal calf serum and 2 mM glutamine. During this time the cells stopped proliferating and the medium was supplemented with different concentrations of tested compounds in DMSO. The cells were further cultured in the medium described above in the presence of tested compounds, and after 3 days the medium was changed and the tested compounds in DMSO were added to the medium once again. After another 3 days the amount of viable cells was measured using the kit […]-BLUE Cell Viability Assay (Promega) according to the manufacturer's instructions. The fluorescent measurement was carried out on the combined spectrophotometer ENVISION (PerkinElmer), and the results are shown in FIGS. 8 and 9.

T1 sequence (Q92731 whole entry): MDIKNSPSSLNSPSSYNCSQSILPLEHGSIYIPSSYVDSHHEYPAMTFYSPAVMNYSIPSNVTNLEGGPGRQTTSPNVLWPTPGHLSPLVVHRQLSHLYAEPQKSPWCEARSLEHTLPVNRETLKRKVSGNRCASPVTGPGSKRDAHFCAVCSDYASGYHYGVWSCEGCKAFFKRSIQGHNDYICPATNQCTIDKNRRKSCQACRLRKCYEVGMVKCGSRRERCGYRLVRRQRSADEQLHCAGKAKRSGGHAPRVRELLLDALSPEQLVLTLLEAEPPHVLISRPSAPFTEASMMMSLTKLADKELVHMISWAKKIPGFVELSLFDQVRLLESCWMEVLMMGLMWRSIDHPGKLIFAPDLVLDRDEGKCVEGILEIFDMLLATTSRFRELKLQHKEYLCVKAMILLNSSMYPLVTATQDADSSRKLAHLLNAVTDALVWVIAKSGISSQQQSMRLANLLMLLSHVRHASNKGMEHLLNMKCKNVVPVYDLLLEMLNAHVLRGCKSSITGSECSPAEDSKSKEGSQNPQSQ

**Q.** With C[C@]12CC[C@@H]3c4ccc(O)cc4CC[C@H]3[C@@H]1CC[C@@]2(O)c1ccc2c(c1)CCC2 [PN214, 17α-(1,3-Dihydro-2H-inden-5-yl)-estradiol] as the compound, how does the EC50 [1] read?
**A.** 1.08 nM

**Q.** What about the “stimulation of ERα in the reporter assays” value ([2]; 1 nM) of the same compound?
**A.** doesn't stimulate ERα

**Q.** What about the EC50 [2] of the same compound?
**A.** 21.1 nM

**Q.** And the “ligand selectivity for ERα in the reporter assays” value [2]?
**A.** 0.02

**Q.** And the “proliferation effect on MCF-7 cells” value [3]?
**A.** no activity

**Q.** With CCOC(=O)C1(C(C)=O)Cc2ccc([C@]3(O)CC[C@H]4[C@@H]5CCc6cc(O)ccc6[C@H]5CC[C@@]43C)cc2C1 (stereo partly drawn) [PN207, 17α-[2-Acetyl-2-(ethoxycarbonyl)-1,3-dihydro-2H-inden-5-yl]-estradiol] as the compound, how does the EC50 [1] read?
**A.** 14.5 nM

**Q.** How did the EC50 [1] turn out when CC(=O)C1(C(C)=O)Cc2ccc([C@]3(O)CC[C@H]4[C@@H]5CCc6cc(O)ccc6[C@H]5CC[C@@]43C)cc2C1 [PN228, 17α-(2,2-Diacetyl-1,3-dihydro-2H-inden-5-yl)-estradiol] was run?
**A.** 60.4 nM

**Q.** And the “ligand selectivity for ERβ in the reporter assays” value [1]?
**A.** 0.86

**Q.** And the EC50 [2]?
**A.** 19 nM

**Q.** What about the “ligand selectivity for ERα in the reporter assays” value [2] of the same compound?
**A.** 1.16

**Q.** How did the EC50 [1] turn out when CCOC(=O)C1(C#N)Cc2ccc([C@]3(O)CC[C@H]4[C@@H]5CCc6cc(O)ccc6[C@H]5CC[C@@]43C)cc2C1 (stereo partly drawn) [PN233, 17α-[2-Cyano-2-(ethoxycarbonyl)-1,3-dihydro-2H-inden-5-yl]-estradiol] was run?
**A.** 12.8 nM

**Q.** For C[C@]12CC[C@@H]3c4ccc(O)cc4CC[C@H]3[C@@H]1CC[C@@H]2O [Ligand E2, estradiol, reference compound], which “toxic effect on MCF-7 cells” value ([3]; high concentrations of ligands (1-10 μM)) is on record?
**A.** toxic effect

**Q.** With Cc1ccc(S(=O)(=O)N2Cc3ccc([C@]4(O)CC[C@H]5[C@@H]6CCc7cc(O)ccc7[C@H]6CC[C@@]54C)cc3C2)cc1 [PN229, 17α-(1,3-Dihydro-2-tosyl-2H-indol-5-yl)-estradiol] as the compound, how does the EC50 [1] read?
**A.** 62.7 nM

**Q.** Which results are given for CCOC(=O)C1(C(=O)OCC)Cc2ccc([C@]3(O)CC[C@H]4[C@@H]5CCc6cc(O)ccc6[C@H]5CC[C@@]43C)cc2C1 [PN202, 17α[2,2-Bis(ethoxycarbonyl)-1,3-dihydro-2H-inden-5-yl]-estradiol]?
**A.** EC50 [1]: 19.3 nM; ligand selectivity for ERβ in the reporter assays [1]: 0.55; EC50 [2]: 3.85 nM; ligand selectivity for ERα in the reporter assays [2]: 1.83; proliferation effect on MCF-7 cells [3]: comparable to estradiol

Source: US8334280B2, “Ligands of estrogen receptors α and β, method of their preparation, and pharmaceuticals comprising them” (Ustav Molekularni Genetikv AV CR, V.V.I., priority 2008, dated 2012)
